The record followed here is patent US20110117588A1, “METHOD OF PREDICTING DRUG-INDUCED PHOSPHOLIPIDOSIS” (KYUSHU UNIVERSITY, NATIONAL UNIVERSITY CORPORATION, priority 2007, published 2011).

Data set [1] deals with NRK cells. Kind of data set: Localization of MPR in NRK cells by confocal laser microscope with antibody. The conditions noted are these: 24 hr exposure, concentration at which localization altered.
The subject of data set [2] is NRK cells. Kind of data set: Intracellular and extracellular cathepsin D and cathepsin L levels by Western blotting. In kind it is cell-based, rat. The protocol:
In the case of cathepsin D (CTD), it is biosynthesized as an about 45 kDa proenzyme in rat cell (NRK), and processed in the acidic environment of lysosome to become an about 43 kDa mature enzyme.
Therefore, NRK cells were exposed to 0 (control), 5, 10, 20, 40 and 80 μM of AD for 24 hr, and lysosomal enzyme (CTD and cathepsin L (CTL)) levels in the cell and medium were measured by Western blotting using an antibody to these enzymes. To be specific, immunoprecipitates against anti-CTD antibody in cell lysate and medium or the cell lysate and medium for CTL were subjected to Western blot analysis using an anti-CTD antibody or anti-CTL antibody. […] Therefore, it was also shown that increased lysosomal enzyme in the medium was not caused by extracellular leakage due to cell damage and the like, but by selective extracellular secretion thereof.
(§1) On the other hand, CTL is biosynthesized as an about 39 kDa proenzyme, and converted to a 30 kDa single strand intermediate enzyme and a 23 kDa and 7 kDa double stranded mature enzyme during the process of intracellular transport. […] While CTD increased the enzyme activity in the medium in an AD dose-dependent manner, CTL caused no change. The reason therefor is considered to be the measurement of CTD activity at pH 4.0 where autocatalytic processing occurs, and the measurement of CTL activity at pH 6.0 where processing scarcely occurs.
A general note: Immunoblotting shows a protein as a band on a membrane.

In data set [3] the test system is NRK cells. In words: β-hexosaminidase activity in the medium after exposure of NRK cells. An excerpt:
On the other hand, the activity of lysosomal enzyme can be measured using an activity measurement method by known per se for each enzyme. For example, lysosomal enzyme can be quantified by contacting a sample with a substrate compound for a lysosomal enzyme, which emits fluorescence or develops color by an enzyme reaction, and measuring the intensity of the resulting fluorescence or developed color by a fluorometer, spectrophotometer and the like. For example, as a measurement method of β-hexosaminidase, β-galactosidase, β-glucuronidase or β-mannosidase, the method described in The EMBO Journal, 12: 5219-5223 (1993) can be mentioned, as a measurement method of cathepsin D, the method described in J. Biochem, 125: 1137-1143 (1999) can be mentioned, and as a measurement method of cathepsin B/L, the method described in Methods in Enzymology, 80: 535-561 (1981) can be mentioned.
Furthermore, the activity of β-hexosaminidase in the medium was measured by a conventional method.

Data set [4] relates to NRK cells.
Data set [5] concerns NRK cells. Kind of data set: Extracellular and intracellular lysosomal enzyme activity after exposure of NRK cells. In kind it is cell-based, rat. The conditions noted are these: 24 hr. The protocol:
NRK cells were exposed to 0 (solvent control), 5, 10, 20, 40 and 80 μM of AD for 24 hr, and lysosomal enzyme activities in the cell and medium were measured by a conventional method.
as §1

Data set [6] has as its system NRK cells. Kind of data set: Swelling of late endosome/lysosome (LGP85 staining) and phospholipid accumulation (Nile Red) in NRK cells. Format: cell-based, rat. The procedure:
The cells were cultured in a DMEM medium supplemented with lipoprotein-deficient serum to 10% instead of normal fetal bovine serum, and morphological changes of lysosome and the presence or absence of phospholipid accumulation due to exposure to AD under the conditions free of extracellular supply of lipoprotein were examined.

Data set [7] relates to NRK cells. In words: Intracellular LC3 level by Western blotting and confocal microscopy. Format: cell-based. The settings on record: 20 μM; for LC3-II level: Western blot. The procedure:
NRK cells were exposed to 20 μM of AD for 1, 3, 6, 12 and 24 hr, and the level of LC3 (microtuble-associated protein 1 light chain 3), which is an autophagy marker, in each cell was measured by Western blotting using an antibody to the protein. That is, cell lysate was subjected to Western blot analysis using an anti-LC3 antibody.
NRK cells were exposed to various PLIDs for 24 hr, and the intracellular level of LC3 was measured by western blotting.

The structures appear in SMILES notation. Read-outs that look alike come from different tables or passages of the source. Some results are limits rather than exact numbers.

For `Cl.N` [NH4Cl, ammonium chloride], in the data set on NRK cells [1], the “alteration of MPR localization” value was over 5 mM. Moreover, the “ratio of intracellular cathepsin D proenzyme” value in the data set on NRK cells [2] (NRK cells, 24 hr, Western blot of cell lysate immunoprecipitate) was “the ratio of intracellular proenzyme increased”. Besides, in the data set on NRK cells [2] (NRK cells, 24 hr, Western blot of medium immunoprecipitate), the “cathepsin D proenzyme in the medium” value is on record as “the amount of proenzyme secreted in the medium increased”. Moreover, in the data set with NRK cells [3] (NRK cells, 24 hr exposure, concentration at which β-hexosaminidase activity in medium increased), the β-hex activity increase is over 1000 µM.
In turn, `CCN(CC)CCO[C@H]1CC[C@@]2(C)C(=CC[C@@H]3[C@@H]2CC[C@]2(C)C(=O)CC[C@@H]32)C1` [U18666A] gave a β-hex activity increase in the data set on NRK cells [3] (rat, 24 h) of 3 µg/mL. Moreover, in the data set with NRK cells [4] (rat, 24 h), the “alteration of MPR localization” value worked out at 3 µg/mL.
On to `CCCCc1oc2ccccc2c1C(=O)c1cc(I)c(OCCN(CC)CC)c(I)c1` [amiodarone], for which, in the data set on NRK cells [2], the “CTL proenzyme in the medium” value was “only proenzyme increased in an AD dose-dependent manner”, the “cathepsin D proenzyme in the medium” value is recorded as “only proenzyme increased in an AD dose-dependent manner”, the “ratio of CTL mature enzyme in the cell” value is “decreased in an AD dose-dependent manner” and the “ratio of CTL proenzyme in the cell” value is listed as “the ratio of proenzyme increased”. Besides, the “ratio of intracellular cathepsin D proenzyme” value with NRK cells [2] is “increased in a dose-dependent manner”. This molecule also registered a β-hex activity increase in the data set on NRK cells [3] (rat, 24 h) of over 10 µM. The “alteration of MPR localization” value in the data set with NRK cells [4] was “altered”. The “alteration of MPR localization” value with NRK cells [4] (rat, 24 h) was over 10 µM. Moreover, in the data set on NRK cells [5] (5-80 μM), the “activity of α-glucosidase (endoplasmic reticulum enzyme)” value was “changed only at 80 μM”, the “intracellular lysosomal enzyme activity” value is “decreased” and the “lysosomal enzyme activity in the medium” value is “increased in an AD dose-dependent manner”. In the data set with NRK cells [5] (5-80 μM, measured at pH 6.0), the “CTL activity in the medium” value is “changed only at 80 μM” and the “intracellular CTL activity” value was “decreased in a dose-dependent manner”. This molecule also came in with a concentration showing cytotoxicity with NRK cells [5] of 80 µM. In addition, the accumulation of phospholipid entry in the data set on NRK cells [6] (NRK cells in DMEM with 10% lipoprotein-deficient serum) was “accumulation of phospholipid was found at the site”. In the data set on NRK cells [6] (NRK cells in DMEM with 10% lipoprotein-deficient serum, various concentrations, 24 hr), the “late endosome/lysosome morphology (LGP85)” value was “enlargement of late endosome/lysosome occurred in an AD dose-dependent manner”. In addition, in the data set on NRK cells [6] (NRK cells, 24 hr exposure), the “accumulation of phospholipid (Nile Red staining)” value was “accumulation of phospholipid was found” and the “late endosome/lysosome morphology (LGP85 antibody)” value is recorded as “enlarged”. In the data set on NRK cells [7] (1-24 hr, confocal laser microscope), the “granular staining with LC3 in the cell” value is on record as “increased in a time-dependent manner”. The LC3-II level entry in the data set on NRK cells [7] (12 and 24 hr) is on record as “remarkably increased”. The LC3-II level result in the data set on NRK cells [7] (3 hr) was “increased”.
For the molecule `CC1(C)S[C@@H]2[C@H](NC(=O)[C@H](N)c3ccc(O)cc3)C(=O)N2[C@H]1C(=O)O` [amoxicillin], the β-hex activity increase entry in the data set with NRK cells [3] is on record as “none”. Moreover, the “alteration of MPR localization” value with NRK cells [4] is listed as “none”.
As to `CC(=O)Oc1ccccc1C(=O)O` [aspirin], in the data set with NRK cells [3], the β-hex activity increase result is on record as “none”. Moreover, the “alteration of MPR localization” value in the data set with NRK cells [4] is recorded as “none”.
For `C[C@H](CS)C(=O)N1CCC[C@H]1C(=O)O` [captopril], the β-hex activity increase result in the data set on NRK cells [3] is recorded as “none”.
In the case of `CCN(CC)CCCC(C)Nc1ccnc2cc(Cl)ccc12` (stereo not drawn) [chloroquine], in the data set with NRK cells [2], the “cathepsin D proenzyme in the medium” value is on record as “the amount of proenzyme secreted in the medium increased” and the “ratio of intracellular cathepsin D proenzyme” value is “the ratio of intracellular proenzyme increased”. Further, the β-hex activity increase in the data set on NRK cells [3] (rat, 24 h) was over 5 µM. Further, the “alteration of MPR localization” value with NRK cells [4] (rat, 24 h) is over 5 µM.
`CN(C)CCCN1c2ccccc2Sc2ccc(Cl)cc21` [chlorpromazine]: the β-hex activity increase in the data set on NRK cells [3] (rat, 24 h) was 20 µM.
On the same count and under the same terms, the value for `CC[C@H]1OC(=O)[C@H](C)[C@@H](O[C@H]2C[C@@](C)(OC)[C@@H](O)[C@H](C)O2)[C@H](C)[C@@H](O[C@@H]2O[C@H](C)C[C@H](N(C)C)[C@H]2O)[C@](C)(O)C[C@@H](C)C(=O)[C@H](C)[C@@H](O)[C@]1(C)O` [erythromycin] was over 400 µM.
Molecule `O=C(CCCN1CCC(O)(c2ccc(Cl)cc2)CC1)c1ccc(F)cc1` [haloperidol] had a β-hex activity increase in the data set with NRK cells [3] (rat, 24 h) of over 10 µM. Moreover, the “alteration of MPR localization” value in the data set with NRK cells [4] (rat, 24 h) was over 20 µM.
With `CN(C)CCCN1c2ccccc2CCc2ccccc21` [imipramine], the β-hex activity increase with NRK cells [3] (rat, 24 h) was over 40 µM.
`CNCCCC12CCC(c3ccccc31)c1ccccc12` [maprotiline] showed a β-hex activity increase in the data set on NRK cells [3] (rat, 24 h) of over 20 µM. Further, in the data set with NRK cells [4] (rat, 24 h), the “alteration of MPR localization” value came out at 20 µM.
The matching figures for `C1CCC(C(CC2CCCCN2)C2CCCCC2)CC1` (stereo not drawn) [perhexiline]: 5 µM and 2.5 µM.
In the data set on NRK cells [3] (rat, 24 h), `C=C[C@H]1C[N@@]2CC[C@H]1C[C@@H]2[C@@H](O)c1ccnc2ccc(OC)cc12` [quinidine] returned a β-hex activity increase of 100 µM.
`CC/C(=C(\c1ccccc1)c1ccc(OCCN(C)C)cc1)c1ccccc1` [tamoxifen] showed a β-hex activity increase in the data set with NRK cells [3] (rat, 24 h) of over 10 µM. Moreover, in the data set on NRK cells [4] (rat, 24 h), the “alteration of MPR localization” value worked out at 10 µM.
The matching figures for `CSc1ccc2c(c1)N(CCC1CCCCN1C)c1ccccc1S2` (stereo not drawn) [thioridazine]: 10 µM and 10 µM.
On to `CCN(CC)CCOc1ccc2c(c1)C(=O)c1cc(OCCN(CC)CC)ccc1-2` [tilorone], for which, in the data set with NRK cells [2], the “cathepsin D proenzyme in the medium” value was “the amount of proenzyme secreted in the medium increased” and the “ratio of intracellular cathepsin D proenzyme” value is “the ratio of intracellular proenzyme increased”. In the data set on NRK cells [3] (rat, 24 h), the β-hex activity increase was over 2.5 µM. Further, the “alteration of MPR localization” value in the data set with NRK cells [4] (rat, 24 h) was over 5 µM.
